Key:
Assay type in all cases: in vivo
Botrytis cinerea = assay: Test E: test suspension sprayed on tomato seedlings, inoculated next day with Botrytis cinerea (tomato Botrytis); visual disease rating (100 = 100% disease control, 0 = no control; dash = not tested)
Protocol: (§1) The resulting test suspensions were then used in Tests A-F. The test suspension was sprayed to the point of run-off on tomato seedlings. The following day the seedlings were inoculated with a spore suspension of Botrytis cinerea (the causal agent of tomato Botrytis) and incubated in a saturated atmosphere at 20° C. for 48 h, and then moved to a growth chamber at 24° C. for 3 days, after which time visual disease ratings were made. A rating of 100 indicates 100% disease control and a rating of 0 indicates no disease control (relative to the controls). A dash (—) indicates the compound was not tested.

[1] = system: Puccinia recondita f. sp. tritici; assay: Test B: test solution sprayed on wheat seedlings, inoculated next day with Puccinia recondita f. sp. tritici (wheat leaf rust); disease rating (100 = 100% disease control, 0 = no control; dash = not tested)
From the text: The resulting test suspensions were then used in Tests A-F. The test solution was sprayed to the point of run-off on wheat seedlings. […] A rating of 100 indicates 100% disease control and a rating of 0 indicates no disease control (relative to the controls). A dash (—) indicates the compound was not tested.

Alternaria solani = assay: Test F: test suspension sprayed on tomato seedlings, inoculated next day with Alternaria solani (tomato early blight); visual disease rating (100 = 100% disease control, 0 = no control; dash = not tested)
Protocol: as §1, with “Alternaria solani” for “Botrytis cinerea”, “early blight)” for “Botrytis)”, “27°” for “20°”, “20°” for “24°”

Zymoseptoria tritici = assay: Test A: test solution sprayed on wheat seedlings, inoculated next day with Zymoseptoria tritici (wheat leaf blotch); disease rating (100 = 100% disease control, 0 = no control; dash = not tested)
Protocol: The resulting test suspensions were then used in Tests A-F. The test solution was sprayed to the point of run-off on wheat seedlings. The following day the seedlings were inoculated with a spore suspension of Zymoseptoria tritici (the causal agent of wheat leaf blotch) and incubated in a saturated atmosphere at 24° C. for 48 h, and then moved to a growth chamber at 20° C. for 17 days, after which time disease ratings were made. A rating of 100 indicates 100% disease control and a rating of 0 indicates no disease control (relative to the controls). A dash (—) indicates the compound was not tested.

Phakopsora pachyrhizi = assay: Test D: test solution sprayed on soybean seedlings, inoculated next day with Phakopsora pachyrhizi (Asian soybean rust); visual disease rating (100 = 100% disease control, 0 = no control; dash = not tested)
From the text: General protocol for preparing test suspensions for Tests A-F: the test compounds were first dissolved in acetone in an amount equal to 3% of the final volume and then suspended at the desired concentration (in ppm) in acetone and purified water (50/50 mix by volume) containing 250 ppm of the surfactant PEG400 (polyhydric alcohol esters). The resulting test suspensions were then used in Tests A-F.
The test solution was sprayed to the point of run-off on soybean seedlings. The following day the seedlings were inoculated with a spore suspension of Phakopsora pachyrhizi (the causal agent of Asian soybean rust) and incubated in a saturated atmosphere at 22° C. for 24 h and then moved to a growth chamber at 22° C. for 8 days, after which time visual disease ratings were made.
A rating of 100 indicates 100% disease control and a rating of 0 indicates no disease control (relative to the controls). A dash (—) indicates the compound was not tested.

[2] = system: Blumeria graminis f. sp. tritici; assay: Test C: test suspension sprayed on wheat seedlings, inoculated next day with Blumeria graminis f. sp. tritici (wheat powdery mildew); visual disease rating (100 = 100% disease control, 0 = no control; dash = not tested)
Protocol: The resulting test suspensions were then used in Tests A-F. The test suspension was sprayed to the point of run-off on wheat seedlings. The following day the seedlings were inoculated with a spore dust of Blumeria graminis f. sp. tritici, (also known as Erysiphe graminis f. sp. tritici, the causal agent of wheat powdery mildew) and incubated in a growth chamber at 20° C. for 8 days, after which time visual disease ratings were made. A rating of 100 indicates 100% disease control and a rating of 0 indicates no disease control (relative to the controls). A dash (—) indicates the compound was not tested.

Row | Compound | Test E disease control rating (Botrytis cinerea; 50 ppm) [%] | Test B disease control rating ([1]; 50 ppm) [%] | Test F disease control rating (Alternaria solani; 50 ppm) [%] | Test A disease control rating (Zymoseptoria tritici; 50 ppm) [%] | Test D disease control rating (Phakopsora pachyrhizi; 50 ppm) [%] | Test C disease control rating ([2]; 50 ppm) [%] | also measured
1 | CC(O)c1c(-c2ccc(F)cc2Cl)c(-c2ccc(F)cc2Cl)nn(C)c1=O (racemic) [Compound 131] | 97 | 74 | 0 | 96 | 19 |  | 
2 | CC(F)c1c(-c2ccc(F)cc2Cl)c(-c2ccc(F)cc2Cl)nn(C)c1=O (racemic) [Compound 132] | 97 | 68 | 0 | 100 | 0 |  | 
3 | CCn1nc(-c2cc(OC)cc(OC)c2)c(-c2c(F)cccc2F)c(Cl)c1=O [Compound 1] |  |  |  |  |  |  | Test E disease control rating (Botrytis cinerea; 250 ppm): 90%; Test B disease control rating ([1]; 250 ppm): 55%; Test F disease control rating (Alternaria solani; 250 ppm): 0%; Test A disease control rating (Zymoseptoria tritici; 250 ppm): 87%; Test D disease control rating (Phakopsora pachyrhizi; 250 ppm): 0%; Test C disease control rating ([2]; 250 ppm): 0%
4 | CCn1nc(-c2c(Cl)c(OC)cc(OC)c2Cl)c(-c2c(F)cccc2F)cc1=O [Compound 2] |  |  |  |  |  |  | Test E disease control rating (Botrytis cinerea; 250 ppm): 0%; Test B disease control rating ([1]; 250 ppm): 0%; Test F disease control rating (Alternaria solani; 250 ppm): 0%; Test A disease control rating (Zymoseptoria tritici; 250 ppm): 2%; Test D disease control rating (Phakopsora pachyrhizi; 250 ppm): 0%; Test C disease control rating ([2]; 250 ppm): 0%
5 | CCn1nc(-c2cc(OC)cc(OC)c2)c(-c2cc(OC)cc(OC)c2)cc1=O [Compound 3] |  |  |  |  |  |  | Test E disease control rating (Botrytis cinerea; 250 ppm): 0%; Test B disease control rating ([1]; 250 ppm): 0%; Test F disease control rating (Alternaria solani; 250 ppm): 0%; Test A disease control rating (Zymoseptoria tritici; 250 ppm): 7%; Test D disease control rating (Phakopsora pachyrhizi; 250 ppm): 0%; Test C disease control rating ([2]; 250 ppm): 0%
6 | CCn1nc(-c2c(F)cccc2F)c(-c2cc(OC)cc(OC)c2)cc1=O [Compound 4, 6-(2,6-difluorophenyl)-5-(3,5-dimethoxyphenyl)-2-ethyl-3(2H)-pyridazinone] |  |  |  |  |  |  | pest or weed control at 250 ppm (Botrytis cinerea; 250 ppm): 9%; pest or weed control at 250 ppm ([1]; 250 ppm): 0%; pest or weed control at 250 ppm (Alternaria solani; 250 ppm): 0%; pest or weed control at 250 ppm (Zymoseptoria tritici; 250 ppm): 66%; pest or weed control at 250 ppm (Phakopsora pachyrhizi; 250 ppm): 0%; pest or weed control at 250 ppm ([2]; 250 ppm): 0%
7 | Cn1nc(-c2c(F)cccc2F)c(-c2c(F)cccc2F)cc1=O [Compound 5, 5,6-bis(2,6-difluorophenyl)-2-methyl-3(2H)-pyridazinone] |  |  |  |  |  |  | pest or weed control at 250 ppm (Botrytis cinerea; 250 ppm): 99%; pest or weed control at 250 ppm ([1]; 250 ppm): 0%; pest or weed control at 250 ppm (Alternaria solani; 250 ppm): 0%; pest or weed control at 250 ppm (Zymoseptoria tritici; 250 ppm): 42%; pest or weed control at 250 ppm (Phakopsora pachyrhizi; 250 ppm): 0%; pest or weed control at 250 ppm ([2]; 250 ppm): 100%
8 | CCn1nc(-c2ccc(F)cc2Cl)c(-c2ccc(F)cc2Cl)c(C#N)c1=O [Compound 7] |  |  |  |  |  |  | Test E disease control rating (Botrytis cinerea; 250 ppm): 99%; Test B disease control rating ([1]; 250 ppm): 74%; Test F disease control rating (Alternaria solani; 250 ppm): 0%; Test A disease control rating (Zymoseptoria tritici; 250 ppm): 98%; Test D disease control rating (Phakopsora pachyrhizi; 250 ppm): 0%; Test C disease control rating ([2]; 250 ppm): 0%
9 | CCn1nc(-c2cc(OC)cc(OC)c2Cl)c(-c2c(F)cccc2F)cc1=O [Compound 8] | 99 | 96 | 0 | 100 | 75 | 97 | 
10 | CCn1nc(-c2cc(OC)cc(OC)c2Cl)c(-c2c(F)cccc2F)c(Cl)c1=O [Compound 9] | 99 | 100 | 91 | 100 | 99 | 99 | 
11 | CCn1nc(-c2c(F)cccc2F)c(-c2cc(OC)cc(OC)c2)c(Cl)c1=O [Compound 10, 4-chloro-6-(2,6-difluorophenyl)-5-(3,5-dimethoxyphenyl)-2-ethyl-3(2H)-pyridazinone] |  |  |  |  |  |  | pest or weed control at 250 ppm (Botrytis cinerea; 250 ppm): 0%; pest or weed control at 250 ppm ([1]; 250 ppm): 0%; pest or weed control at 250 ppm (Alternaria solani; 250 ppm): 0%; pest or weed control at 250 ppm (Zymoseptoria tritici; 250 ppm): 0%; pest or weed control at 250 ppm (Phakopsora pachyrhizi; 250 ppm): 0%; pest or weed control at 250 ppm ([2]; 250 ppm): 0%
12 | CCn1nc(-c2ccc(F)cc2Cl)c(-c2ccc(F)cc2Cl)cc1=O [Compound 11] |  |  |  |  |  |  | Test E disease control rating (Botrytis cinerea; 250 ppm): 87%; Test B disease control rating ([1]; 250 ppm): 9%; Test F disease control rating (Alternaria solani; 250 ppm): 0%; Test A disease control rating (Zymoseptoria tritici; 250 ppm): 2%; Test D disease control rating (Phakopsora pachyrhizi; 250 ppm): 0%; Test C disease control rating ([2]; 250 ppm): 64%
13 | CCn1nc(-c2cc(OC)cc(OC)c2)c(-c2c(F)cccc2F)c(Br)c1=O [Compound 15] | 68 | 41 | 0 | 78 | 0 | 13 | 
14 | CCn1nc(-c2cc(OC)cc(OC)c2Br)c(-c2c(F)cccc2F)c(Br)c1=O [Compound 16] | 99 | 97 | 94 | 99 | 84 | 97 | 
15 | CCn1nc(-c2cc(OC)cc(OC)c2Br)c(-c2c(F)cccc2F)cc1=O [Compound 17] | 99 | 99 | 0 | 98 | 73 | 94 | 
16 | Cn1nc(-c2ccc(F)cc2Cl)c(-c2ccc(F)cc2Cl)c(C(F)F)c1=O [Compound 130] | 98 | 100 | 98 | 100 | 77 |  | 
17 | Cn1nc(-c2ccc(F)cc2Cl)c(-c2ccc(F)cc2Cl)c(C(N)=O)c1=O [Compound 133] | 0 | 0 | 0 | 3 | 0 |  | 
18 | COc1cc(C#N)cc(-c2nn(C)c(=O)c(Cl)c2-c2ccc(F)cc2Cl)c1 [Compound 173] | 92 | 100 | 99 |  | 84 | 94 | 
19 | COc1cc(C#N)cc(-c2nn(C)c(=O)c(OC)c2-c2ccc(F)cc2Cl)c1 [Compound 174] | 83 | 95 | 91 |  | 30 | 97 | 
